Laboratory results published in ChEMBL document CHEMBL3639216, “Compounds and method for treatment of HIV” (2015).

Molecular target: Gag-Pol polyprotein (Human immunodeficiency virus type 1 group M subtype A (isolate U455)(HIV-1), UniProt P24740)
Assay: Integrase Assay: The effect of each compound on HIV integrase activity was assayed using the HIV-1 Integrase Assay Kit version 2.0, catalogue number EZ-1700 obtained from XpressBio Life Science Products. Immediately prior to the start of the assay, both compounds were dissolved in dimethyl sulfoxide (DMSO) and used immediately in the HIV integration assay. The assay was performed according to the instructions listed by the manufacturer (XpressBio Life Science Products, Maryland, USA). In brief, the required streptavidin-coated strip wells were coated with DS oligo and placed overnight at 4° C. The plates were then incubated with integrase and followed by the addition of test articles at the desired concentration. The plates were developed using the supplied HRP antibody and TMB peroxidase substrate as per the manufacturer's instructions. The reactions were stopped with TMB stop solution and immediately read (<10 min) using a VICTOR XXX. The absorbance of each well was read at 450 nm for 0.5 sec.

Sequence of Gag-Pol polyprotein (P24740 1141-1428 limits assumed): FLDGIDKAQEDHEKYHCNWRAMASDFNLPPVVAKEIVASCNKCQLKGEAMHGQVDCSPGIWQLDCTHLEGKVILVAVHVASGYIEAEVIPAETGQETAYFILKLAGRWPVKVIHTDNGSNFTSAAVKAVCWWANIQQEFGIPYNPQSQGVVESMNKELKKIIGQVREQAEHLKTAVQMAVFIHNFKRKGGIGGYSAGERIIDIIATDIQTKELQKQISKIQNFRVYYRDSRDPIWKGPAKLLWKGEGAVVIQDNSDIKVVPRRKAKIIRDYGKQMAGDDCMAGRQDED

Structure (SMILES) | IC50 [µM]
Cn1cnc(-c2nnc(Cc3ccc(F)cc3)o2)c(O)/c1=N/O | 58.7
Cn1nc(-c2nnc(Cc3ccc(F)cc3)o2)/c(=N/O)c2ncccc21 | 23.9
